Experimental data as given in BindingDB's records for doi:10.7270/Q22V2DH9 (Nmmlsc, 2007).

Molecular target: T1, N-formyl peptide receptor 2 (Homo sapiens, UniProt P25090)
T1 sequence (P25090 whole entry): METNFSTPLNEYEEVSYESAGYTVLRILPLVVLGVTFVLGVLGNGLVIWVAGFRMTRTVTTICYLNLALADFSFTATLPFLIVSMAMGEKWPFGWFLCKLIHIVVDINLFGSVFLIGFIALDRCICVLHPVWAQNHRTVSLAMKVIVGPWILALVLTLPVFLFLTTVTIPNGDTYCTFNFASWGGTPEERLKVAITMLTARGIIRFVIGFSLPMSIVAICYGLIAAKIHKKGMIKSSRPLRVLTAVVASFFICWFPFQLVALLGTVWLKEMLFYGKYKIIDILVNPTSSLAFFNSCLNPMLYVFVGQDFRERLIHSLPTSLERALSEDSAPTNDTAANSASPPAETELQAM
Assay: FPRL1 fluorescent ligand binding inhibitors, dose response, selectivity assay for FPR1 ligand SAR project, cell-based, flow cytometry, Ki from IC50 (AID 723)

SMILES | IC50 [µM]
COc1ccc(-c2c(C(F)(F)F)oc3c(CN4CCOCC4)c(O)ccc3c2=O)cc1OC [3-(3,4-dimethoxyphenyl)-7-hydroxy-8-(4-morpholinylmethyl)-2-(trifluoromethyl)-1-benzopyran-4-one] | > 66.7
COc1ccc(C2C(C(=O)N3CCCC(C)C3)c3ccccc3C(=O)N2C)cc1 (configuration not stated) [3-(4-methoxyphenyl)-2-methyl-4-(3-methylpiperidin-1-yl)carbonyl-3,4-dihydroisoquinolin-1-one] | > 66.7
O=C1C(=O)N(CCCn2ccnc2)C(c2cccnc2)C1C(=O)c1ccco1 (configuration not stated) [3-(furan-2-carbonyl)-4-hydroxy-1-(3-imidazol-1-ylpropyl)-2-pyridin-3-yl-2H-pyrrol-5-one] | > 66.7
COc1ccc(OC)c(C2C(C(=O)c3ccc(C)cc3)C(=O)C(=O)N2CCC(=O)O)c1 (configuration not stated) [3-[(3E)-2-(2,5-dimethoxyphenyl)-3-[(4-methylphenyl)-oxidanyl-methylidene]-4,5-bis(oxidanylidene)pyrrolidin-1-yl]propanoic acid] | > 66.7
COc1ccc(-c2c(C(F)(F)F)oc3cc(OC(=O)c4cccnc4)ccc3c2=O)cc1OC [3-pyridinecarboxylic acid [3-(3,4-dimethoxyphenyl)-4-oxo-2-(trifluoromethyl)-1-benzopyran-7-yl] ester] | > 66.7
Cc1cccc(C2CC(=O)NC3=C2C(=O)CC(c2cccs2)C3)c1 (configuration not stated) [4-(3-methylphenyl)-7-thiophen-2-yl-1,3,4,6,7,8-hexahydroquinoline-2,5-dione] | > 66.7
O=C(O)CCCN1C(=O)C(=O)C(C(=O)c2ccccc2)C1/C=C/c1ccccc1 (configuration not stated) [4-[(4E)-2,3-bis(oxidanylidene)-4-[oxidanyl(phenyl)methylidene]-5-[(E)-2-phenylethenyl]pyrrolidin-1-yl]butanoic acid] | > 66.7
COc1ccc(C2C(C(=O)c3ccco3)C(=O)C(=O)N2CCN2CCOCC2)c(OC)c1 (configuration not stated) [5-(2,4-dimethoxyphenyl)-4-(furan-2-carbonyl)-3-hydroxy-1-(2-morpholinoethyl)-1H-pyrrol-2(5H)-one] | > 66.7
O=C1CC(c2ccccc2C(F)(F)F)C2=C(CC(c3cccs3)CC2=O)N1 (configuration not stated) [7-(2-thienyl)-4-[2-(trifluoromethyl)phenyl]-1,3,4,6,7,8-hexahydroquinoline-2,5-quinone] | > 66.7
COCCN1C(=O)C(=O)C(C(=O)c2ccccc2)C1c1ccc(C(C)C)cc1 (configuration not stated) [(4E)-1-(2-methoxyethyl)-4-[oxidanyl(phenyl)methylidene]-5-(4-propan-2-ylphenyl)pyrrolidine-2,3-dione] | > 66.7
COCCN1C(=O)C(=O)C(C(=O)c2ccccc2)C1c1ccccc1OC (configuration not stated) [(4E)-1-(2-methoxyethyl)-5-(2-methoxyphenyl)-4-[oxidanyl(phenyl)methylidene]pyrrolidine-2,3-dione] | > 66.7
COc1ccc(OC)c(C2C(C(=O)c3ccccc3)C(=O)C(=O)N2c2ccc(C)c(Cl)c2)c1 (configuration not stated) [(4E)-1-(3-chloranyl-4-methyl-phenyl)-5-(2,5-dimethoxyphenyl)-4-[oxidanyl(phenyl)methylidene]pyrrolidine-2,3-dione] | > 66.7
COc1ccc(C2C(C(=O)c3ccccc3)C(=O)C(=O)N2c2cccc(Cl)c2)c(OC)c1 (configuration not stated) [(4E)-1-(3-chlorophenyl)-5-(2,4-dimethoxyphenyl)-4-[hydroxy(phenyl)methylene]pyrrolidine-2,3-quinone] | > 66.7
COCCCN1C(=O)C(=O)C(C(=O)c2ccccc2)C1c1ccc(C(C)C)cc1 (configuration not stated) [(4E)-1-(3-methoxypropyl)-4-[oxidanyl(phenyl)methylidene]-5-(4-propan-2-ylphenyl)pyrrolidine-2,3-dione] | > 66.7
Cc1ccc(C(=O)C2C(=O)C(=O)N(c3nnc(C)s3)C2c2ccc(C(C)C)cc2)cc1 (configuration not stated) [(4E)-4-[(4-methylphenyl)-oxidanyl-methylidene]-1-(5-methyl-1,3,4-thiadiazol-2-yl)-5-(4-propan-2-ylphenyl)pyrrolidine-2,3-dione] | > 66.7
CC(C)c1ccc(C2C(C(=O)c3ccccc3)C(=O)C(=O)N2Cc2cccnc2)cc1 (configuration not stated) [(4E)-4-[hydroxy(phenyl)methylene]-5-p-cumenyl-1-(3-pyridylmethyl)pyrrolidine-2,3-quinone] | > 66.7
COc1ccc(C2C(C(=O)c3ccccc3)C(=O)C(=O)N2CCCn2ccnc2)c(OC)c1 (configuration not stated) [(4E)-5-(2,4-dimethoxyphenyl)-1-(3-imidazol-1-ylpropyl)-4-[oxidanyl(phenyl)methylidene]pyrrolidine-2,3-dione] | > 66.7
COc1ccc(C2C(C(=O)c3ccc(C)cc3)C(=O)C(=O)N2Cc2cccnc2)c(OC)c1 (configuration not stated) [(4E)-5-(2,4-dimethoxyphenyl)-4-[(4-methylphenyl)-oxidanyl-methylidene]-1-(pyridin-3-ylmethyl)pyrrolidine-2,3-dione] | > 66.7
COCCN1C(=O)C(=O)C(C(=O)c2ccccc2)C1c1cc(OC)ccc1OC (configuration not stated) [(4E)-5-(2,5-dimethoxyphenyl)-1-(2-methoxyethyl)-4-[oxidanyl(phenyl)methylidene]pyrrolidine-2,3-dione] | > 66.7

SMILES | IC50 [µM]
COc1ccc(OC)c(C2C(C(=O)c3ccccc3)C(=O)C(=O)N2c2cccnc2)c1 (configuration not stated) [(4E)-5-(2,5-dimethoxyphenyl)-4-[hydroxy(phenyl)methylene]-1-(3-pyridyl)pyrrolidine-2,3-quinone] | > 66.7
COCCCN1C(=O)C(=O)C(C(=O)c2ccccc2)C1c1ccc(O)c(OC)c1 (configuration not stated) [(4E)-5-(3-methoxy-4-oxidanyl-phenyl)-1-(3-methoxypropyl)-4-[oxidanyl(phenyl)methylidene]pyrrolidine-2,3-dione] | > 66.7
O=C1C(=O)N(CN2CCOCC2)C(c2ccc(Br)cc2)C1C(=O)c1ccccc1 (configuration not stated) [(4E)-5-(4-bromophenyl)-1-(morpholin-4-ylmethyl)-4-[oxidanyl(phenyl)methylidene]pyrrolidine-2,3-dione] | > 66.7
O=C1NC(c2ccc(Br)cc2)C(C(=O)c2ccc(Cl)cc2)C1=O (configuration not stated) [(4E)-5-(4-bromophenyl)-4-[(4-chlorophenyl)-hydroxy-methylene]pyrrolidine-2,3-quinone] | > 66.7
Cc1ccc(C(=O)C2C(=O)C(=O)N(Cc3cccnc3)C2c2ccc(Br)cc2)cc1 (configuration not stated) [(4E)-5-(4-bromophenyl)-4-[(4-methylphenyl)-oxidanyl-methylidene]-1-(pyridin-3-ylmethyl)pyrrolidine-2,3-dione] | > 66.7
Cc1ccc(N2C(=O)C(=O)C(C(=O)c3ccccc3)C2c2cccc(F)c2)cc1Br (configuration not stated) [(4Z)-1-(3-bromanyl-4-methyl-phenyl)-5-(3-fluorophenyl)-4-[oxidanyl(phenyl)methylidene]pyrrolidine-2,3-dione] | > 66.7
CCCCCCN1C(=O)C(=O)C(C(=O)c2ccccc2)C1c1ccc(O)c(OC)c1 (configuration not stated) [(4Z)-1-hexyl-5-(3-methoxy-4-oxidanyl-phenyl)-4-[oxidanyl(phenyl)methylidene]pyrrolidine-2,3-dione] | > 66.7
COc1cccc(/C=C2/C(=O)NN(c3ccc(C)cc3)C2=O)c1 [(4Z)-4-[(3-methoxyphenyl)methylidene]-1-(4-methylphenyl)pyrazolidine-3,5-dione] | > 66.7
COc1ccc(C(=O)C2C(=O)C(=O)NC2c2ccc(OC)cc2OC)cc1 (configuration not stated) [(4Z)-5-(2,4-dimethoxyphenyl)-4-[(4-methoxyphenyl)-oxidanyl-methylidene]pyrrolidine-2,3-dione] | > 66.7
CCCCCCOc1cccc(N2C(=O)C(=O)C(C(=O)c3ccccc3)C2c2cccc(F)c2)c1 (configuration not stated) [(4Z)-5-(3-fluorophenyl)-1-(3-hexoxyphenyl)-4-[hydroxy(phenyl)methylene]pyrrolidine-2,3-quinone] | > 66.7
O=C1C(=O)N(c2ccc(F)cc2)C(c2ccc(Br)cc2)C1C(=O)c1ccccc1 (configuration not stated) [(4Z)-5-(4-bromophenyl)-1-(4-fluorophenyl)-4-[hydroxy(phenyl)methylene]pyrrolidine-2,3-quinone] | > 66.7
N#Cc1c(N=C(CC(=O)c2ccccc2)C(=O)O)sc2c1CCC2 [(Z)-2-[(3-cyano-5,6-dihydro-4H-cyclopenta[b]thiophen-2-yl)amino]-4-keto-4-phenyl-but-2-enoic acid] | > 66.7
COc1ccc(OC)c(CNC(=O)Cn2c(=O)sc3ccccc32)c1 [N-(2,5-dimethoxybenzyl)-2-(2-keto-1,3-benzothiazol-3-yl)acetamide] | > 66.7
Cc1cccc(C)c1NC(=O)C(NC(=O)Cc1cccs1)c1ccccc1 (configuration not stated) [N-(2,6-dimethylphenyl)-2-[(1-oxo-2-thiophen-2-ylethyl)amino]-2-phenylacetamide] | > 66.7
CC(C)C(=O)N(Cc1ccco1)S(=O)(=O)c1cccc2cccnc12 [N-(2-furanylmethyl)-2-methyl-N-(8-quinolinylsulfonyl)propanamide] | > 66.7
CCCC(=O)N(Cc1ccco1)S(=O)(=O)c1cccc2cccnc12 [N-(2-furanylmethyl)-N-(8-quinolinylsulfonyl)butanamide] | > 66.7
COc1cccc(-c2ccnc3[nH]n(-c4ccccc4)c(=O)c23)c1 [UNM000003608001] | > 66.7
CCc1cc2c(=O)c(-c3nc4ccccc4n3C)c(C)oc2cc1OC(C)=O [acetic acid [6-ethyl-2-methyl-3-(1-methyl-2-benzimidazolyl)-4-oxo-1-benzopyran-7-yl] ester] | > 66.7
